The results in this text go back to US10526287B2, “LSD1 inhibitors and uses thereof” (Constellation Pharmaceuticals, Inc., priority 2015, dated 2020).

Structures can show the parent of a compound that is named as a salt.

In the first experiment the target is LSD1 (Homo sapiens, UniProt O60341). In words: Biochemical assay for LSD1 activity (LSD1 demethylase TR-FRET). To be noted: Table 6; biotinylated H3K4me1 peptide, 50 minutes at room temperature, TR-FRET; read-out: LSD1_Pep_TR-FRET_1.0 (IC50 T50).
`C/C(=C\c1ccccc1)[C@@H]1C[C@H]1NCC1CCN(CCC#N)CC1` (racemic) [Compound 135, 3-(4-((((trans)-2-((E)-1-phenylprop-1-en-2-yl)cyclopropyl)amino)methyl)piperidin-1-yl)propanenitrile dihydrochloride]: the IC50 is < 100 nM.

Turning to `CC/C(=C\c1ccccc1)[C@@H]1C[C@H]1N[C@H]1CC[C@H](NCCOCC(=O)O)CC1` (single isomer, unassigned) [Compound 162, 2-(2-(((trans)-4-(((trans)-2-((E)-1-phenylbut-1-en-2-yl)cyclopropyl)amino)cyclohexyl)amino)ethoxy)acetic acidbis(trifluoroacetic acid salt)], the IC50 was < 100 nM.

Consider `CC/C(=C\c1ccccc1)[C@@H]1C[C@H]1NCC1CCN(Cc2ccc(C(=O)O)cc2)CC1` (racemic) [Compound 163, 4-((4-((((trans)-2-((E)-1-phenylbut-1-en-2-yl)cyclopropyl)amino)methyl)piperidin-1-yl)methyl)benzoic acid bis trifluoroacetic acid salt], for which the IC50 was < 100 nM.

Turning to `C/C(=C\c1ccccc1)[C@@H]1C[C@H]1N[C@H]1CC[C@@H](NCCC(N)=O)CC1` (single isomer, unassigned) [Compound 152, 3-(((cis)-4-(((trans)-2-((E)-1-phenylprop-1-en-2-yl)cyclopropyl)amino)cyclohexyl)amino)propanamide bis(trifluoroacetic acid) salt], the IC50 was < 100 nM.

For `C/C(=C\c1ccccc1)[C@@H]1C[C@H]1NC1CCN(CCOCC(=O)O)CC1` (racemic) [Compound 204, 2-(2-(4-(((trans)-2-((E)-1-phenylprop-1-en-2-yl)cyclopropyl)amino)piperidin-1-yl)ethoxy)acetic Acid Dihydrochloride], the concentration for half-maximal inhibition (IC50) was > 10000 nM.

For `C/C(=C\c1ccccc1)[C@@H]1C[C@H]1N[C@H]1CC[C@H](NCc2ccc(C(=O)O)cc2)CC1` (single isomer, unassigned) [Compound 150, 4-((((trans)-4-(((trans)-2-((E)-1-phenylprop-1-en-2-yl)cyclopropyl)amino)cyclohexyl)amino)methyl)benzoic acid bis(trifluoroacetic acid) salt], the IC50 is < 100 nM.

The experiment is the same for the next values; noted with them: Table 7; biotinylated H3K4me1 peptide, 50 minutes at room temperature, TR-FRET; read-out: LSD1_Pep_TR-FRET_1.0 (IC50 T50).
With `CC/C(=C\c1ccccc1)[C@@H]1C[C@H]1NCCC(C)(C)N` (racemic) [Compound 240], the 50% inhibitory concentration (IC50) is < 100 nM.

Regarding `CC/C(=C\c1ccccc1)[C@@H]1C[C@H]1NC[C@H]1C[C@H](NCC(C)(C)C(=O)O)C1` (racemic) [Compound 233], the IC50 is < 100 nM.

For `CC/C(=C\c1ccccc1)[C@@H]1C[C@H]1NC1CC2(C1)CN(Cc1ccc(C(=O)O)nc1)C2` (single isomer, unassigned) [Compound 251], the IC50 is < 100 nM.

In the case of `CC/C(=C\c1ccccc1)[C@@H]1C[C@H]1NC1CC2(CCN(CCC(=O)O)CC2)C1` (racemic) [Compound 225, 3-(2-(((trans)-2-((E)-1-phenylbut-1-en-2-yl)cyclopropyl)amino)-7-azaspiro[3.5]nonan-7-yl)propanoic Acid Bis Trifluoroacetate], the concentration for half-maximal inhibition (IC50) is < 100 nM.

For `CC/C(=C\c1ccccc1)[C@@H]1C[C@H]1NCc1cnn(C2CNC2)c1` (racemic) [Compound 242], the IC50 was < 100 nM.

The term IC50 denotes the concentration that inhibits the measured activity by half.
